# Assay results taken from US6849637B2, “Triazolo compounds as MMP inhibitors” (Warner-Lambert Company, priority 2001, dated 2005).
# Test system: not given
# Conditions: not given
row,melting point [°C],SMILES
1,204,"COC(=O)Cc1ccc(Cn2c(=O)c3cc(C(=O)NCc4ccc(OC)cc4)ccc3n3cnnc23)cc1 [Example 17, Methyl (4-{7-[(4-methoxy)-benzylcarbamoyl]-5-oxo-5H-[1,2,4]triazolo[4,3-a]quinazolin-4-ylmethyl}-phenyl)-acetate]"
2,232,"O=C(O)Cc1ccc(Cn2c(=O)c3cc(C(=O)NCc4ccc5c(c4)OCO5)ccc3n3cnnc23)cc1 [Example 26, (4-{7-[(1,3-Benzodioxol-5-ylmethyl)-carbamoyl]-5-oxo-5H-[1,2,4]triazolo[4,3-a]quinazolin-4-ylmethyl}-phenyl)-acetic acid]"
3,250,"O=C(NCc1ccncc1)c1ccc2c(c1)c(=O)n(C/C=C/c1ccncc1)c1nncn21 [Example 19, N-(pyridin-4-ylmethyl) 4-[3-(pyridin-4-yl)-2-propen-1-yl]-5-oxo-4H-[1,2,4]triazolo[4,3-a]quinazol-7-ylcarboxamide]"
4,300,"N#Cc1ccc(Cn2c(=O)c3cc(C(=O)NCc4ccncc4)ccc3n3cnnc23)cc1 [Example 15, N-(pyridin-4-ylmethyl)-4-(4-cyanobenzyl)-5-oxo-4H-[1,2,4]triazolo[4,3-a]quinazol-7-ylcarboxamide]"
5,186,"COc1ccc(CNC(=O)c2ccc3c(c2)c(=O)n(CCOc2ccc(Cl)cc2)c2nncn32)cc1 [Example 20, 4-[2-(4-Chloro-phenoxy)-ethyl]-5-oxo-4,5-dihydro-[1,2,4]triazolo[4,3-a]quinazoline-7-carboxylic acid 4-methoxy-benzylamide]"
6,235,"COC(=O)c1ccc(Cn2c(=O)c3cc(C(=O)NCc4ccncc4)ccc3n3cnnc23)cc1 [Example 12, Methyl 4-{7-[(pyridin-4-ylmethyl)-carbamoyl]-5-oxo-5H-[1,2,4]triazolo[4,3-a]quinazol-4-ylmethyl}benzoate]"
7,248,"COC(=O)c1ccc(Cn2c(=O)c3cc(C(=O)NCc4ccc5c(c4)OCO5)ccc3n3cnnc23)cc1 [Example 10, Methyl 4-{7-[(1,3-benzodioxol-5-ylmethyl)-carbamoyl]-5-oxo-5H-[1,2,4]triazolo[4,3-a]quinazol-4-ylmethyl}benzoate]"
8,303,"O=C(O)c1ccc(Cn2c(=O)c3cc(C(=O)NCc4ccc(F)cc4)ccc3n3cnnc23)cc1 [Example 24, 4-{7-[(4-Fluoro)-benzylcarbamoyl]-5-oxo-5H-[1,2,4]triazolo[4,3-a]quinazol-4-ylmethyl}benzoic acid]"
9,255,"O=C(O)c1ccc(Cn2c(=O)c3cc(C(=O)NCc4ccncc4)ccc3n3cnnc23)cc1 [Example 23, 4-{7-[(Pyridin-4-ylmethyl)-carbamoyl]-5-oxo-5H-[1,2,4]triazolo[4,3-a]quinazol-4-ylmethyl}benzoic acid]"
10,235,"O=C(O)c1ccc(Cn2c(=O)c3cc(C(=O)NCc4ccc5c(c4)OCO5)ccc3n3cnnc23)cc1 [Example 22, 4-{7-[(1,3-Benzodioxol-5-ylmethyl)-carbamoyl]-5-oxo-5H-[1,2,4]triazolo[4,3]quinazol-4-ylmethyl}benzoic acid]"
11,175,"CN(C)CCOC(=O)c1ccc(Cn2c(=O)c3cc(C(=O)NCc4ccc(F)cc4)ccc3n3cnnc23)cc1 [Example 13, (2-Dimethylamino-ethyl) 4-[7-(4-fluoro-benzylcarbamoyl)-5-oxo-5H-[1,2,4]triazolo[4,3-a]quinazol-4-ylmethyl]benzoate]"
12,210,"COC(=O)c1ccc(Cn2c(=O)c3cc(C(=O)NCc4ccc(OC)cc4)ccc3n3cnnc23)cc1 [Example 11, Methyl 4-{7-[(4-methoxybenzyl)-carbamoyl]-5-oxo-5H-[1,2,4]triazolo[4,3-a]quinazol-4-ylmethyl}benzoate]"
13,268,"COc1ccc(CNC(=O)c2ccc3c(c2)c(=O)n(Cc2ccc(CC(=O)O)cc2)c2nncn32)cc1 [Example 25, (4-{7-[(4-Methoxy)-benzylcarbamoyl]-5-oxo-5H-[1,2,4]triazolo[4,3-a]quinazolin-4-ylmethyl}-phenyl)-acetic acid]"

# Test system: MMP-1, MMP-2, MMP-3, MMP-9 and MMP-13
# Conditions: prior art compounds, collagenase, gelatinase and stromelysin type MMPs; cited from earlier work
row,SMILES,"inhibition of MMP-1, MMP-2, MMP-3, MMP-9 and MMP-13 (non-selective)"
1,COc1ccc(S(=O)(=O)N(Cc2cccnc2)[C@@H](C(=O)NO)C(C)C)cc1 [CGS-27.023A],simultaneously inhibit
2,CC1(C)SCCN(S(=O)(=O)c2ccc(Oc3ccncc3)cc2)[C@H]1C(=O)NO [AG-3340],simultaneously inhibit
